Laboratory results: ChEMBL document CHEMBL5543112, “Discovery of CBPD-268 as an Exceptionally Potent and Orally Efficacious CBP/p300 PROTAC Degrader Capable of Achieving Tumor Regression” (J Med Chem, 2024)

Legend:
[1] = Drug distribution in Sprague-Dawley rat spleen at 10 mg/kg, po measured at 24 hrs by LC-MS/MS analysis; format: ADME, organism-based; conditions: read-out: Ct
[2] = Drug distribution in SCID mouse tumor at 0.3 mg/kg, po measured at 6 hrs by LC-MS/MS analysis; format: ADME, organism-based, Neoplasm; conditions: read-out: Ct
[3] = Drug distribution in Sprague-Dawley rat spleen at 10 mg/kg, po measured at 1 hr by LC-MS/MS analysis; format: ADME, organism-based; conditions: read-out: Ct
[4] = Metabolic stability in human plasma assessed as half life measured upto 120 mins by LC-MS/MS analysis; format: ADME, cell-free
[5] = Drug distribution in SCID mouse liver at 1 mg/kg, po measured at 1 hr by LC-MS/MS analysis; format: ADME, organism-based; conditions: read-out: Ct
[6] = Half life in Sprague-Dawley rat at 1 mg/kg, iv measured upto 24 hrs by LC/MS-MS analysis; format: ADME, organism-based; conditions: in vivo
[7] = Drug distribution in Sprague-Dawley rat heart at 10 mg/kg, po measured at 1 hr by LC-MS/MS analysis; format: ADME, organism-based; conditions: read-out: Ct
[8] = Drug distribution in Sprague-Dawley rat liver at 3 mg/kg, po measured at 24 hrs by LC-MS/MS analysis; format: ADME, organism-based; conditions: read-out: Ct
[9] = target: Protein cereblon/Histone lysine acetyltransferase CREBBP (Rattus norvegicus, UniProt Q56AP7+Q6JHU9); experiment: PROTAC activity at CBP/CRBN in rat RG2 cells assessed as induction of CBP degradation; format: cell-based
Protein cereblon/Histone lysine acetyltransferase CREBBP, sequence (Q56AP7 whole entry): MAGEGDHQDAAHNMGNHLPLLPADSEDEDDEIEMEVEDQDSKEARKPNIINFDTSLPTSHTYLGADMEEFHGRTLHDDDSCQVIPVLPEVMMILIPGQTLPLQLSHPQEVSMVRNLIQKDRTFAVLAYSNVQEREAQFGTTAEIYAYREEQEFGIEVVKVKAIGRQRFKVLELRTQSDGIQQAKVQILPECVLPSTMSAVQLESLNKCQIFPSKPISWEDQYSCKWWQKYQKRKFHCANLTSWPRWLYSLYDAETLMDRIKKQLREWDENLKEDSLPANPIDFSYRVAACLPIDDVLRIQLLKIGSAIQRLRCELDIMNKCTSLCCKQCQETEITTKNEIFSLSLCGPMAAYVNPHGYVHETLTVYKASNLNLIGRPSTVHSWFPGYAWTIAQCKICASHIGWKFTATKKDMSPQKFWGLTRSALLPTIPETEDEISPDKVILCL
Protein cereblon/Histone lysine acetyltransferase CREBBP, sequence (Q6JHU9 whole entry): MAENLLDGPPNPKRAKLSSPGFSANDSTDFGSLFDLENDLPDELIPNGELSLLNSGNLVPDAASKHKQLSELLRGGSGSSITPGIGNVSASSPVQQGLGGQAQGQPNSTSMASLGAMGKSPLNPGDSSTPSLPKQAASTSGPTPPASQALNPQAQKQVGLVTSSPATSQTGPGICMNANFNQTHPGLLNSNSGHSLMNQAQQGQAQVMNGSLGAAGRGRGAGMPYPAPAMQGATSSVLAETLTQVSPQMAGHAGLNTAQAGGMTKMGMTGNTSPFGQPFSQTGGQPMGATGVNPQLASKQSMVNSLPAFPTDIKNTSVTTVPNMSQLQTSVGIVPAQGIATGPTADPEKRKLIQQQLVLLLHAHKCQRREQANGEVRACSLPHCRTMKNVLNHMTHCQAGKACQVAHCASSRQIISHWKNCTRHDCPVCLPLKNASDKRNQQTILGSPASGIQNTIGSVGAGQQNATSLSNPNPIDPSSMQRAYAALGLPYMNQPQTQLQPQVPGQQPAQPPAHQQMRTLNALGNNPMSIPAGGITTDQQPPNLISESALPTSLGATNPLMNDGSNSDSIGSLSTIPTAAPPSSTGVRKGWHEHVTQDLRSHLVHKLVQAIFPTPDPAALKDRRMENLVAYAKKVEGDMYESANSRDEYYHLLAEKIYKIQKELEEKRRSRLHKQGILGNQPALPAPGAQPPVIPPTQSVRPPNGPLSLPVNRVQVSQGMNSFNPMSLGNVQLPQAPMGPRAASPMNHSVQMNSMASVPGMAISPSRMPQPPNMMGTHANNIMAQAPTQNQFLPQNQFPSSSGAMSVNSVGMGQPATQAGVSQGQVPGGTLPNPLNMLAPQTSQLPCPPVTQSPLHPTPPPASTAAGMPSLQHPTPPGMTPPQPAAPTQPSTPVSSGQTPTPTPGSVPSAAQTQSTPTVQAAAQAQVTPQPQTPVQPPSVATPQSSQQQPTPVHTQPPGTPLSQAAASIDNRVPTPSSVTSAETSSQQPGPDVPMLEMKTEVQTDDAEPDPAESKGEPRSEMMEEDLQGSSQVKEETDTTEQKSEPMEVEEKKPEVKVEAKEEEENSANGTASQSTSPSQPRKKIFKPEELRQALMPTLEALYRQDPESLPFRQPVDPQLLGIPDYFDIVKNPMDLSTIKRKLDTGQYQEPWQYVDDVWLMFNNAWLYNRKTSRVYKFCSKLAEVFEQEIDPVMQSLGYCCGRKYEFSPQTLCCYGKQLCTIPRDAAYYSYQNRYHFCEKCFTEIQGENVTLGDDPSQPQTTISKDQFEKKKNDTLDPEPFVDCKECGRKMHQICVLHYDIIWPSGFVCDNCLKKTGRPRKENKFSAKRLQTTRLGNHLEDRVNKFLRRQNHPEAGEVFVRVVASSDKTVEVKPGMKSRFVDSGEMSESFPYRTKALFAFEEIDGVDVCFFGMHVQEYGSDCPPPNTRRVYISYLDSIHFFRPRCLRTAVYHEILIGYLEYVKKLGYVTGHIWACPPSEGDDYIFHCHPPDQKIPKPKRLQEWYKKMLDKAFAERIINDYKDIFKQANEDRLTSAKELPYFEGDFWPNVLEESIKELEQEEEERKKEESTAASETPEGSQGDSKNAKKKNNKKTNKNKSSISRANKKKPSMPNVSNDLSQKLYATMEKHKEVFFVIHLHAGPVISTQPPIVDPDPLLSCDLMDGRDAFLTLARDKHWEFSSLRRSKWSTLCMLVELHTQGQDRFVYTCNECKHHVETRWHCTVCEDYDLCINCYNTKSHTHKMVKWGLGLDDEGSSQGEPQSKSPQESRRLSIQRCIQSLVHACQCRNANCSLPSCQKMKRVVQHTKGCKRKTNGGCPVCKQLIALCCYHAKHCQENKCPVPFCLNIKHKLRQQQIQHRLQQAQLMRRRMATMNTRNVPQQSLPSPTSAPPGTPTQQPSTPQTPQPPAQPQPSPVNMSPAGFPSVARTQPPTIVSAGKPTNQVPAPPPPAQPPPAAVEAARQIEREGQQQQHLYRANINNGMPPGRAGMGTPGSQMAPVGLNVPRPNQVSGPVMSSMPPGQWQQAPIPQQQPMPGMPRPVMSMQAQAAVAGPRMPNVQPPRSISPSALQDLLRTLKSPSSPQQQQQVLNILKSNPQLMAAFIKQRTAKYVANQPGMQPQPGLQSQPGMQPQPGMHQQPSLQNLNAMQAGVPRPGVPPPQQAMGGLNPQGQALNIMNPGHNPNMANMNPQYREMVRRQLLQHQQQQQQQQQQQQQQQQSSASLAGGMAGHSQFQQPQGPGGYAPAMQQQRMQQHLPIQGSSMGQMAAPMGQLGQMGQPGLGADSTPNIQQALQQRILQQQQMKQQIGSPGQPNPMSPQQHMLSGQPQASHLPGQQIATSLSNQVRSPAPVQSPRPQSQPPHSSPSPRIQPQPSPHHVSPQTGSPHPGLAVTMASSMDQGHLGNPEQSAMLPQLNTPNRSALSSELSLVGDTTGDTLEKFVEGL

[10] = system: VCaP; experiment: Antitumor activity against human VCaP cells xenografted in SCID mouse assessed as tumor growth inhibition at 1 mg/kg, po administered twice a week for 4 week; format: functional; conditions: 672 h, time 4 weeks, read-out: TGI
[11] = Oral bioavailability in ICR mouse at 3 mg/kg measured upto 24 hrs by LC/MS-MS analysis; format: ADME, organism-based; conditions: in vivo
[12] = Toxicity in immune-competent Sprague-Dawley rat assessed as decrease in glucose level at 10 mg/kg, po administered twice a week for 5 weeks; format: organism-based; conditions: in vivo, 840 h
[13] = Drug distribution in Sprague-Dawley rat liver at 10 mg/kg, po measured at 24 hrs by LC-MS/MS analysis; format: ADME, organism-based; conditions: read-out: Ct
[14] = system: VCaP; experiment: Antiproliferative activity against human VCaP cells assessed as cell growth inhibition incubated for 4 days by celtiter-glo luminescent assay; conditions: 96 h
[15] = Toxicity in immune-competent Sprague-Dawley rat assessed as change in blood urea nitrogen level at 1 to 10 mg/kg, po administered twice a week for 5 weeks; format: organism-based; conditions: in vivo, 840 h, dose 1-10 mg/kg
[16] = system: CWR22R; experiment: Antitumor activity against human 22Rv1 cells xenografted in SCID mouse assessed as tumor growth inhibition at 1 mg/kg, po administered 3 times a week for 3 weeks; format: functional; conditions: 22Rv1, 504 h, read-out: TGI
[17] = Drug distribution in SCID mouse tumor at 3 mg/kg, po measured at 6 hrs by LC-MS/MS analysis; format: ADME, organism-based, Neoplasm; conditions: read-out: Ct
[18] = target: Cytochrome P450 2D6 (Homo sapiens, UniProt P10635); experiment: Inhibition of CYP2D6 (unknown origin) preincubated with compound for 5 mins followed by NADPH addition and measured after 20 mins by LC-MS/MS analysis; format: ADME
Cytochrome P450 2D6, sequence (P10635 whole entry): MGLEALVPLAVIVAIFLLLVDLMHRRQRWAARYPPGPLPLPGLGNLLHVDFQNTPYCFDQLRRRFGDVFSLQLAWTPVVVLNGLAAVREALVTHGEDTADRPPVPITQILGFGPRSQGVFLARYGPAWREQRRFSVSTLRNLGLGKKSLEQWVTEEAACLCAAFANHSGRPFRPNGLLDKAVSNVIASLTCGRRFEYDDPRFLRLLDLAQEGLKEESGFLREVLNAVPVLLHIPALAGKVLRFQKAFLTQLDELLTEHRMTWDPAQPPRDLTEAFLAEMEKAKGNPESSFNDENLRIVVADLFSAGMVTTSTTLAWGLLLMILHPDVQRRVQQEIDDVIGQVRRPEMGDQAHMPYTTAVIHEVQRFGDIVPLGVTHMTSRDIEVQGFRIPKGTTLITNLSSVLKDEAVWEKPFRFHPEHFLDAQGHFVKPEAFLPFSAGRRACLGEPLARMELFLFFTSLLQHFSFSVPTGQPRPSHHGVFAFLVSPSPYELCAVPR

[19] = Half life in ICR mouse at 1 mg/kg, iv measured upto 24 hrs by LC/MS-MS analysis; format: ADME, organism-based; conditions: in vivo
[20] = Toxicity in immune-competent Sprague-Dawley rat assessed as change in calcium level at 1 to 10 mg/kg, po administered twice a week for 5 weeks; format: organism-based; conditions: in vivo, 840 h, dose 1-10 mg/kg
[21] = Toxicity in immune-competent Sprague-Dawley rat assessed as change in total bilirubin level at 1 to 10 mg/kg, po administered twice a week for 5 weeks; format: organism-based; conditions: in vivo, 840 h, dose 1-10 mg/kg
[22] = Drug distribution in SCID mouse tumor at 3 mg/kg, po measured at 24 hrs by LC-MS/MS analysis; format: ADME, organism-based, Neoplasm; conditions: read-out: Ct
[23] = system: CWR22R; experiment: Antiproliferative activity against human 22Rv1 cells assessed as cell growth inhibition incubated for 4 days by celtiter-glo luminescent assay; conditions: 22Rv1, 96 h
[24] = Plasma protein binding in monkey by LC-MS analysis; format: ADME, cell-free, Macaca mulatta; conditions: rhesus monkey, read-out: PPB (converted)
[25] = Oral bioavailability in Sprague-Dawley rat at 3 mg/kg measured upto 24 hrs by LC/MS-MS analysis; format: ADME, organism-based; conditions: in vivo
[26] = Metabolic stability in monkey plasma assessed as half life measured upto 120 mins by LC-MS/MS analysis; format: ADME, cell-free, Macaca mulatta; conditions: rhesus monkey
[27] = Toxicity in immune-competent Sprague-Dawley rat assessed as change in alkaline phosphatase level at 1 to 10 mg/kg, po administered twice a week for 5 weeks; format: organism-based; conditions: in vivo, 840 h, dose 1-10 mg/kg
[28] = Toxicity in immune-competent Sprague-Dawley rat assessed as change in platelet count at 1 to 10 mg/kg, po administered twice a week for 5 weeks; format: organism-based; conditions: in vivo, 840 h, dose 1-10 mg/kg
[29] = Toxicity in immune-competent Sprague-Dawley rat assessed as change in red blood cells count at 1 to 10 mg/kg, po administered twice a week for 5 weeks; format: organism-based; conditions: in vivo, 840 h, dose 1-10 mg/kg
[30] = Drug distribution in SCID mouse spleen at 0.3 mg/kg, po measured at 1 hr by LC-MS/MS analysis; format: ADME, organism-based; conditions: read-out: Ct
[31] = Drug distribution in Sprague-Dawley rat plasma at 3 mg/kg, po measured at 1 hr by LC-MS/MS analysis; format: ADME, organism-based
[32] = Drug distribution in SCID mouse liver at 3 mg/kg, po measured at 24 hrs by LC-MS/MS analysis; format: ADME, organism-based; conditions: read-out: Ct
[33] = Drug distribution in Sprague-Dawley rat plasma at 3 mg/kg, po measured at 24 hrs by LC-MS/MS analysis; format: ADME, organism-based
[34] = Drug distribution in Sprague-Dawley rat kidney at 3 mg/kg, po measured at 6 hrs by LC-MS/MS analysis; format: ADME, organism-based; conditions: read-out: Ct
[35] = target: Cytochrome P450 3A4 (Homo sapiens, UniProt P08684); experiment: Inhibition of CYP3A4 (unknown origin) using midazolam as substrate preincubated with compound for 5 mins followed by NADPH addition and measured after 20 mins by LC-MS/MS analysis; format: ADME
Cytochrome P450 3A4, sequence (P08684 whole entry): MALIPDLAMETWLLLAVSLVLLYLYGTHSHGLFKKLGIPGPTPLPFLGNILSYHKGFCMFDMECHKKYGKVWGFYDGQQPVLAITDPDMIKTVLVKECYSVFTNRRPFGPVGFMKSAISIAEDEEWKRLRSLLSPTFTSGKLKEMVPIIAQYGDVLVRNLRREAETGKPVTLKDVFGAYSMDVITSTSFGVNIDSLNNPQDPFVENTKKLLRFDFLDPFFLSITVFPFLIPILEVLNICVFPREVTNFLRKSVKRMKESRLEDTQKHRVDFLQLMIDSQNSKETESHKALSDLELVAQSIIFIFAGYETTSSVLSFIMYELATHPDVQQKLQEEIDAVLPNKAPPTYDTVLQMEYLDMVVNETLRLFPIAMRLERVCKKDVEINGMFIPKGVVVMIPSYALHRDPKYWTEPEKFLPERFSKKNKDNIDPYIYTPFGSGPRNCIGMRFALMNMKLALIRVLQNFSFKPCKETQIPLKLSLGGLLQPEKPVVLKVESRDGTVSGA

[36] = Metabolic stability in mouse plasma assessed as half life measured upto 120 mins by LC-MS/MS analysis; format: ADME, cell-free
[37] = Drug distribution in SCID mouse spleen at 1 mg/kg, po measured at 1 hr by LC-MS/MS analysis; format: ADME, organism-based; conditions: read-out: Ct
[38] = Toxicity in immune-competent Sprague-Dawley rat assessed as change in lymphocyte at 1 to 10 mg/kg, po administered twice a week for 5 weeks; format: organism-based; conditions: in vivo, 840 h, dose 1-10 mg/kg
[39] = system: CWR22R; experiment: Antitumor activity against human 22Rv1 cells xenografted in SCID mouse assessed as tumor growth inhibition at 1 mg/kg, po administered 5 times a week for 3 weeks; format: functional; conditions: 22Rv1, 504 h, read-out: TGI
[40] = Drug distribution in Sprague-Dawley rat spleen at 10 mg/kg, po measured at 6 hrs by LC-MS/MS analysis; format: ADME, organism-based; conditions: read-out: Ct

`CC(=O)N1CCc2c(c(N3CCCc4cc(-c5cnn(C)c5)c(C(F)F)cc43)nn2[C@H]2CC[C@H](CN3Cc4cc5c(cc4C3)C(=O)N(C3CCC(=O)NC3=O)C5=O)CC2)C1` (stereo not given in full) gave a concentration at 24 h [1] of 12.6 ng/g, a concentration at 6 h [2] of 14.4 ng/g and a concentration at 1 h [3] of 1990 ng/g. The half-life [4] was 1.18 h, the concentration at 1 h [5] was 1640 ng/mL and the half-life [6] was 1.9 h. For the same compound, the concentration at 1 h [7] was 638 ng/g, the concentration at 24 h [8] was 8.4 ng/g and the DC50 [9] was 0.1 nM. The inhibition in vivo at 1 mg/kg [10] was 81%, the bioavailability [11] was 60% and the Activity [12] was “Non-Toxic”. The concentration at 24 h [13] was 20.2 ng/g, the IC50 [14] was 4.6 nM and the Activity [15] was “Non-Toxic”. For the same compound, the inhibition in vivo at 1 mg/kg [16] was 54%, the concentration at 6 h [17] was 294 ng/g and the IC50 [18] was > 10000 nM. The t1/2 [19] was 3.4 h, the Activity [20] was “Non-Toxic” and the Activity [21] was “Non-Toxic”. For the same compound, the concentration at 24 h [22] was 12 ng/mL, the IC50 [23] was 3.7 nM and the fraction unbound [24] was 0.009. For the same compound, the bioavailability [25] was 67%, the half-life [26] was > 2 h and the Activity [27] was “Non-Toxic”. For the same compound, the Activity [28] was “Non-Toxic”, the Activity [29] was “Non-Toxic” and the concentration at 1 h [30] was 91 ng/mL. It also gave a concentration at 1 h [31] of 109 ng/mL, a concentration at 24 h [32] of 61.1 ng/mL and a concentration at 24 h [33] of 1.3 ng/mL. For the same compound, the concentration at 6 h [34] was 59.2 ng/g, the IC50 [35] was > 10000 nM and the half-life [36] was > 2 h. For the same compound, the concentration at 1 h [37] was 146 ng/mL, the Activity [38] was “Non-Toxic” and the inhibition in vivo at 1 mg/kg [39] was 75%. For the same compound, the concentration at 6 h [40] was 406 ng/g.
